Reference: patent US20100256357A1, “HETEROCYCLES USEFUL AS INHIBITORS OF CARBONIC ANHYDRASE” (Agouron Pharmaceuticals, Inc., priority 2006, published 2010)

target: T1, human CA-II (Homo sapiens, UniProt P00918); assay: Carbonic Anhydrase-II (CA-II) Fluorescence Polarization Tight Binding Assay-Kd Determination; details: inhibitor concentration 2.5 nM
T1 construct: purchased Sigma-Aldrich C6165
Protocol: Assays were conducted in a final volume of 100 μL in 50 mM Tris/HCl (pH 7.6), 100 mM Na2SO4 and 0.005% Tween-20 in a 96-well black assay plate. […] The assay plate was
The Kd binding was calculated using GraphPad Prism and Morrison tight binding ligand equation.

SMILES | inhibition at 0.0025 µM [%]
C[C@@H](NCc1nc(Cc2ccccc2)n(-c2ccc(S(N)(=O)=O)cc2F)n1)[C@@H](O)c1ccccc1 [Example T-43, 4-[5-benzyl-3-({[(1R2S)-2-hydroxy-1-methyl-2-phenylethyl]amino}methyl)-1H-124-triazol-1-yl]-3-fluorobenzenesulfonamide] | 41
NS(=O)(=O)c1ccc(-n2nc(CN[C@H](CO)Cc3ccccc3)nc2Cc2ccccc2)c(F)c1 [Example T-44, 4-[5-benzyl-3-({[(1S)-1-benzyl-2-hydroxyethyl]amino}methyl)-1H-124-triazol-1-yl]-3-fluorobenzenesulfonamide] | 49
NS(=O)(=O)c1ccc(-n2nc(CNCC3(c4ccccc4)CC3)nc2Cc2ccccc2)c(F)c1 [Example T-45, 4-[5-benzyl-3-({[(1-phenylcyclopropyl)methyl]amino}methyl)-1H-124-triazol-1-yl]-3-fluorobenzenesulfonamide] | 53
NS(=O)(=O)c1ccc(-n2nc(CNC[C@@H](O)c3ccccc3)nc2Cc2ccccc2)c(F)c1 [Example T-46, 4-[5-benzyl-3-({[(2S)-2-hydroxy-2-phenylethyl]amino}methyl)-1H-124-triazol-1-yl]-3-fluorobenzenesulfonamide] | 57
COC[C@@H](NCc1nc(Cc2ccccc2)n(-c2ccc(S(N)(=O)=O)cc2F)n1)c1ccccc1 [Example T-47, 4-[5-benzyl-3-({[(1S)-2-methoxy-1-phenylethyl]amino}methyl)-1H-124-triazol-1-yl]-3-fluorobenzenesulfonamide] | 41
NS(=O)(=O)c1ccc(-n2nc(CNCCc3cccc(F)c3)nc2Cc2ccccc2)c(F)c1 [Example T-48, 4-[5-benzyl-3-({[2-(3-fluorophenyl)ethyl]amino}methyl)-1H-124-triazol-1-yl]-3-fluorobenzenesulfonamide] | 50
Cc1cc(CNCc2nc(Cc3ccccc3)n(-c3ccc(S(N)(=O)=O)cc3F)n2)ccc1F [Example T-49, 4-(5-benzyl-3-{[(4-fluoro-3-methylbenzyl)amino]methyl}-1H-124-triazol-1-yl)-3-fluorobenzenesulfonamide] | 49
C[C@H](NCc1nc(Cc2ccccc2)n(-c2ccc(S(N)(=O)=O)cc2F)n1)[C@H](O)c1ccccc1 [Example T-50, 4-[5-benzyl-3-({[(1S2R)-2-hydroxy-1-methyl-2-phenylethyl]amino}methyl)-1H-124-triazol-1-yl]-3-fluorobenzenesulfonamide] | 63
C[C@H](CNCc1nc(Cc2ccccc2)n(-c2ccc(S(N)(=O)=O)cc2F)n1)c1ccccc1 [Example T-52, 4-[5-benzyl-3-({[(2S)-2-phenylpropyl]amino}methyl)-1H-124-triazol-1-yl]-3-fluorobenzenesulfonamide] | 39
NS(=O)(=O)c1ccc(-n2nc(CN[C@H]3CCCC[C@H]3O)nc2Cc2ccccc2)c(F)c1 [Example T-53, 4-[5-benzyl-3-({[(1S2R)-2-hydroxycyclohexyl]amino}methyl)-1H-124-triazol-1-yl]-3-fluorobenzenesulfonamide] | 75
NS(=O)(=O)c1ccc(-n2nc(CNCCOc3ccccc3F)nc2Cc2ccccc2)c(F)c1 [Example T-54] | 38
NS(=O)(=O)c1ccc(-n2nc(CNCc3ccc(F)cc3)nc2Cc2ccccc2)c(F)c1 [Example T-56, 4-(5-benzyl-3-{[(4-fluorobenzyl)amino]methyl}-1H-124-triazol-1-yl)-3-fluorobenzenesulfonamide] | 50
NS(=O)(=O)c1ccc(-n2nc(CNC3CCCCCC3)nc2Cc2ccccc2)c(F)c1 [Example T-57, 4-(5-benzyl-3-[(cycloheptylamino)methyl]-1H-124-triazol-1-yl}-3-fluorobenzenesulfonamide] | 68
NS(=O)(=O)c1ccc(-n2nc(CNCCc3ccccc3F)nc2Cc2ccccc2)c(F)c1 [Example T-58, 4-[5-benzyl-3-({[2-(2-fluorophenyl)ethyl]amino}methyl)-1H-124-triazol-1-yl]-3-fluorobenzenesulfonamide] | 51
CC(C)CCNCc1nc(Cc2ccccc2)n(-c2ccc(S(N)(=O)=O)cc2F)n1 [Example T-59, 4-(5-benzyl-3-{[(3-methylbutyl)amino]methyl}-1H-124-triazol-1-yl)-3-fluorobenzenesulfonamide] | 53
NS(=O)(=O)c1ccc(-n2nc(CNCc3cc(F)ccc3F)nc2Cc2ccccc2)c(F)c1 [Example T-60, 4-(5-benzyl-3-{[(25-difluorobenzyl)amino]methyl}-1H-124-triazol-1-yl)-3-fluorobenzenesulfonamide] | 57
NS(=O)(=O)c1ccc(-n2nc(CNCCc3ccccc3)nc2Cc2ccccc2)c(F)c1 [Example T-61, 4-(5-benzyl-3-{[(2-phenylethyl)amino]methyl}-1H-124-triazol-1-yl)-3-fluorobenzenesulfonamide] | 40
COc1ccc(CCNCc2nc(Cc3ccccc3)n(-c3ccc(S(N)(=O)=O)cc3F)n2)cc1 [Example T-62, 4-[5-benzyl-3-({[2-(4-methoxyphenyl)ethyl]amino}methyl)-1H-124-triazol-1-yl]-3-fluorobenzenesulfonamide] | 51
CCOc1ccccc1CNCc1nc(Cc2ccccc2)n(-c2ccc(S(N)(=O)=O)cc2F)n1 [Example T-63, 4-(5-benzyl-3-{[(2-ethoxybenzyl)amino]methyl}-1H-124-triazol-1-yl)-3-fluorobenzenesulfonamide] | 41

More lines, now with the values ahead:

inhibition at 0.0025 µM [%] | SMILES
47 | NS(=O)(=O)c1ccc(-n2nc(CNCCOc3ccccc3)nc2Cc2ccccc2)c(F)c1 [Example T-64, 4-(5-benzyl-3-{[(2-phenoxyethyl)amino]methyl}-1H-124-triazol-1-yl)-3-fluorobenzenesulfonamide]
58 | C[C@@H](NCc1nc(Cc2ccccc2)n(-c2ccc(S(N)(=O)=O)cc2F)n1)c1ccccc1 [Example T-65]
52 | Cc1cccc(CCNCc2nc(Cc3ccccc3)n(-c3ccc(S(N)(=O)=O)cc3F)n2)c1 [Example T-66, 4-[5-benzyl-3-({[2-(3-methylphenyl)ethyl]amino}methyl)-1H-124-triazol-1-yl]-3-fluorobenzenesulfonamide]
47 | NS(=O)(=O)c1ccc(-n2nc(CN[C@@H]3C[C@H]4CC[C@@H]3C4)nc2Cc2ccccc2)c(F)c1 [Example T-67]
55 | Cc1ccn(CCNCc2nc(Cc3ccccc3)n(-c3ccc(S(N)(=O)=O)cc3F)n2)n1 [Example T-68, 4-[5-benzyl-3-({[2-(3-methyl-1H-pyrazol-1-yl)ethyl]amino}methyl)-1H-124-triazol-1-yl]-3-fluorobenzenesulfonamide]
68 | NS(=O)(=O)c1ccc(-n2nc(CNC3CCCCC3)nc2Cc2ccccc2)c(F)c1 [Example T-69, 4-{5-benzyl-3-[(cyclohexylamino)methyl]-1H-124-triazol-1-yl}-3-fluorobenzenesulfonamide]
89 | CCC(COC)NCc1nc(Cc2ccccc2)n(-c2ccc(S(N)(=O)=O)cc2F)n1 (centres unmarked) [Example T-70, 4-[5-benzyl-3-({[1-(methoxymethyl)propyl]amino}methyl)-1H-124-triazol-1-yl]-3-fluorobenzenesulfonamide]
47 | COC[C@H]1CCC[C@H]1NCc1nc(Cc2ccccc2)n(-c2ccc(S(N)(=O)=O)cc2F)n1 [Example T-71, 4-[5-benzyl-3-({[(1R2S)-2-(methoxymethyl)cyclopentyl]amino}methyl)-1H-124-triazol-1-yl]-3-fluorobenzenesulfonamide]
70 | CC(Cn1cccn1)NCc1nc(Cc2ccccc2)n(-c2ccc(S(N)(=O)=O)cc2F)n1 (centres unmarked) [Example T-72, 4-[5-benzyl-3-({[1-methyl-2-(1H-pyrazol-1-yl)ethyl]amino}methyl)-1H-124-triazol-1-yl]-3-fluorobenzenesulfonamide]
50 | COc1cccc(CCNCc2nc(Cc3ccccc3)n(-c3ccc(S(N)(=O)=O)cc3F)n2)c1 [Example T-73, 4-[5-benzyl-3-({[2-(3-methoxyphenyl)ethyl]amino}methyl)-1H-124-triazol-1-yl]-3-fluorobenzenesulfonamide]
45 | NS(=O)(=O)c1ccc(-n2nc(CNCc3ccccc3F)nc2Cc2ccccc2)c(F)c1 [Example T-74, 4-(5-benzyl-3-{[(2-fluorobenzyl)amino]methyl}-1H-124-triazol-1-yl)-3-fluorobenzenesulfonamide]
51 | CCC(NCc1nc(Cc2ccccc2)n(-c2ccc(S(N)(=O)=O)cc2F)n1)c1ccccc1 (centres unmarked) [Example T-75, 4-(5-benzyl-3-{[(1-phenylpropyl)amino]methyl}-1H-124-triazol-1-yl)-3-fluorobenzenesulfonamide]
41 | NS(=O)(=O)c1ccc(-n2nc(CNC3Cc4ccccc4C3)nc2Cc2ccccc2)c(F)c1 [Example T-76, 4-{5-benzyl-3-[(23-dihydro-1H-inden-2-ylamino)methyl]-1H-124-triazol-1-yl}-3-fluorobenzenesulfonamide]
50 | NS(=O)(=O)c1ccc(-n2nc(CN[C@@H]3COC[C@@H]3C3CC3)nc2Cc2ccccc2)c(F)c1 [Example T-77, 4-[5-benzyl-3-({[(3S4R)-4-cyclopropyltetrahydrofuran-3-yl]amino}methyl)-1H-124-triazol-1-yl]-3-fluorobenzenesulfonamide]
71 | Cc1cccc(CC(C)NCc2nc(Cc3ccccc3)n(-c3ccc(S(N)(=O)=O)cc3F)n2)n1 (centres unmarked) [Example T-78, 4-[5-benzyl-3-({[1-methyl-2-(6-methylpyridin-2-yl)ethyl]amino}methyl)-1H-124-triazol-1-yl]-3-fluorobenzenesulfonamide]
44 | CC(C)OCCNCc1nc(Cc2ccccc2)n(-c2ccc(S(N)(=O)=O)cc2F)n1 [Example T-79, 4-(5-benzyl-3-{[(2-isopropoxyethyl)amino]methyl}-1H-124-triazol-1-yl)-3-fluorobenzenesulfonamide]
